Experimental data: ChEMBL document CHEMBL1201862, “PubChem BioAssay data set” (2004)
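Results reflect a 48-hour exposure of cells in 96-well plates to compound at five concentrations. Here, GI50 denotes the concentration required for 50% inhibition of growth.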 Active and inactive are the calls of the source. Rule as the data show it: active = GI50 up to about 1.1 µM and inactive = higher.

Columns and labels:
Experiment in all cases: inhibition of tumour cell growth, NCI panel, 48 h
MOLT-4 = test system: MOLT-4
HOP-92 = test system: HOP-92
OVCAR-4 = test system: OVCAR-4
SK-OV-3 = test system: SK-OV-3
U-251 = test system: U-251
NCI-H460 = test system: NCI-H460
RPMI-8226 = test system: RPMI-8226
OVCAR-3 = test system: OVCAR-3
786-0 = test system: 786-0
CCRF-CEM = test system: CCRF-CEM
SNB-75 = test system: SNB-75
OVCAR-5 = test system: OVCAR-5
SF-268 = test system: SF-268
M14 = test system: M14
EKVX = test system: EKVX
LOX IMVI = test system: LOX IMVI
TK-10 = test system: TK-10

| SMILES | GI50 (MOLT-4) | GI50 (HOP-92) | GI50 (OVCAR-4) | GI50 (SK-OV-3) | GI50 (U-251) | GI50 (NCI-H460) | GI50 (RPMI-8226) | GI50 (OVCAR-3) | GI50 (786-0) | GI50 (CCRF-CEM) | GI50 (SNB-75) | GI50 (OVCAR-5) | GI50 (SF-268) | GI50 (M14) | GI50 (EKVX) | GI50 (LOX IMVI) | GI50 (TK-10) |
| --- | --- | --- | --- | --- | --- | --- | --- | --- | --- | --- | --- | --- | --- | --- | --- | --- | --- |
| COc1cccc(/C=C\c2cc(OC)c(OC)c(OC)c2)c1 | 0.379 µM (active) | 22.6 µM (inactive) | 14.4 µM (inactive) | 4.38 µM (inactive) | 0.407 µM (active) | 0.562 µM (active) | 0.845 µM (active) | 0.506 µM (active) | 0.575 µM (active) | 1.21 µM (inactive) | 0.652 µM (active) | 22.2 µM (inactive) | 3.66 µM (inactive) | 0.604 µM (active) | 3.49 µM (inactive) | – | – |
| COc1ccc2nc3cccc(C(=O)NCCN(C)C)c3nc2c1 | 0.187 µM (active) | 5.13 µM (inactive) | 1.63 µM (inactive) | 4.09 µM (inactive) | 2.57 µM (inactive) | – | 0.824 µM (active) | 2.08 µM (inactive) | 2.25 µM (inactive) | – | 2.15 µM (inactive) | 1.51 µM (inactive) | – | 2.28 µM (inactive) | 3.06 µM (inactive) | 0.64 µM (active) | 2 µM (inactive) |
| CCOC(=O)NC(=O)c1cn(CCCOC(=O)CCCCCCCCC(=O)OCCCn2cc(C(=O)NC(=O)OCC)c(=O)[nH]c2=O)c(=O)[nH]c1=O | 19 µM (inactive) | – | 4.41 µM (inactive) | 40.5 µM (inactive) | 16.7 µM (inactive) | 39.4 µM (inactive) | 5.22 µM (inactive) | 15.8 µM (inactive) | 15.8 µM (inactive) | 3.47 µM (inactive) | 32.5 µM (inactive) | – | – | 21.5 µM (inactive) | 38.1 µM (inactive) | 16.4 µM (inactive) | 22.3 µM (inactive) |
| Cc1ccc(S(=O)(=O)OC(COC(=O)c2ccccc2)C(OS(=O)(=O)c2ccc(C)cc2)C(OS(=O)(=O)c2ccc(C)cc2)C(COC(=O)c2ccccc2)OS(=O)(=O)c2ccc(C)cc2)cc1 (stereo not given) | > 100 µM (inactive) | > 100 µM (inactive) | > 100 µM (inactive) | > 10 µM (inactive) | > 100 µM (inactive) | > 100 µM (inactive) | > 100 µM (inactive) | > 100 µM (inactive) | > 100 µM (inactive) | > 100 µM (inactive) | 29.1 µM (inactive) | – | > 100 µM (inactive) | > 100 µM (inactive) | > 100 µM (inactive) | > 100 µM (inactive) | > 100 µM (inactive) |
| CC(C)CCCC(C)[C@H]1CCC2[C@@H]3CCC4Nc5c(cnn5-c5ccccc5)C[C@]4(C)C3CC[C@@]21C (stereo not given in full) | 3.32 µM (inactive) | – | 25.6 µM (inactive) | 48.5 µM (inactive) | 12.5 µM (inactive) | 14.1 µM (inactive) | 3.61 µM (inactive) | 32.5 µM (inactive) | 15.7 µM (inactive) | 7.45 µM (inactive) | 2.88 µM (inactive) | 50.1 µM (inactive) | 85.3 µM (inactive) | 39.8 µM (inactive) | 7.52 µM (inactive) | – | > 100 µM (inactive) |
| Cc1cc(C)c(C(=O)/C=C/c2ccccc2)c(C)c1 | 24.9 µM (inactive) | 19.1 µM (inactive) | 22.8 µM (inactive) | 64.6 µM (inactive) | 15.9 µM (inactive) | 18.7 µM (inactive) | 29.8 µM (inactive) | > 10 µM (inactive) | 27.7 µM (inactive) | 25.4 µM (inactive) | 40.9 µM (inactive) | – | 20.6 µM (inactive) | 19.4 µM (inactive) | 40.4 µM (inactive) | – | 47.5 µM (inactive) |
| COC1=CC(=O)NCCN1 | > 100 µM (inactive) | > 100 µM (inactive) | > 100 µM (inactive) | > 100 µM (inactive) | > 100 µM (inactive) | 29.3 µM (inactive) | – | > 100 µM (inactive) | > 100 µM (inactive) | 51.4 µM (inactive) | > 100 µM (inactive) | > 100 µM (inactive) | > 100 µM (inactive) | > 100 µM (inactive) | > 100 µM (inactive) | 23.5 µM (inactive) | > 100 µM (inactive) |
| [N-]=[N+]=CC(=O)OCCCCl | > 100 µM (inactive) | > 100 µM (inactive) | > 100 µM (inactive) | > 100 µM (inactive) | > 100 µM (inactive) | 4.37 µM (inactive) | > 100 µM (inactive) | > 100 µM (inactive) | > 100 µM (inactive) | > 100 µM (inactive) | – | > 100 µM (inactive) | > 100 µM (inactive) | – | > 100 µM (inactive) | > 100 µM (inactive) | > 100 µM (inactive) |
| CCOCN1COCN/C1=N/C#N | > 100 µM (inactive) | > 100 µM (inactive) | > 100 µM (inactive) | > 100 µM (inactive) | > 100 µM (inactive) | > 100 µM (inactive) | – | > 100 µM (inactive) | > 100 µM (inactive) | – | > 100 µM (inactive) | > 100 µM (inactive) | > 100 µM (inactive) | > 100 µM (inactive) | > 100 µM (inactive) | – | > 100 µM (inactive) |
| Nc1nc(=O)n(C2CC(O)C(O)C(CO)O2)cc1F (stereo not given) | > 100 µM (inactive) | – | > 100 µM (inactive) | – | > 100 µM (inactive) | > 100 µM (inactive) | > 100 µM (inactive) | > 100 µM (inactive) | > 100 µM (inactive) | > 100 µM (inactive) | > 100 µM (inactive) | > 100 µM (inactive) | > 100 µM (inactive) | > 100 µM (inactive) | > 100 µM (inactive) | > 100 µM (inactive) | > 100 µM (inactive) |
| N#Cc1ccccc1NC(=O)C(=O)C(C(=O)c1ccccc1-c1ccccc1)C1OC(=O)c2ccccc21 (stereo not given) | 13.9 µM (inactive) | 20 µM (inactive) | – | 41.2 µM (inactive) | 11.7 µM (inactive) | 18.2 µM (inactive) | 11.7 µM (inactive) | 15.8 µM (inactive) | 14.8 µM (inactive) | 18.4 µM (inactive) | 14.6 µM (inactive) | 17.8 µM (inactive) | 14.3 µM (inactive) | 15.4 µM (inactive) | 18.5 µM (inactive) | 15 µM (inactive) | > 10 µM (inactive) |
| COc1ccc2cc3c4cc(OC)c(OC)cc4ccn3c2c1 | > 100 µM (inactive) | > 100 µM (inactive) | > 100 µM (inactive) | > 100 µM (inactive) | > 100 µM (inactive) | > 100 µM (inactive) | – | – | > 100 µM (inactive) | > 100 µM (inactive) | – | > 100 µM (inactive) | > 100 µM (inactive) | – | > 100 µM (inactive) | > 100 µM (inactive) | > 100 µM (inactive) |
| COC(=O)c1ncc2c(=O)[nH]c3ccccc3c2c1C(=O)OC | > 100 µM (inactive) | > 100 µM (inactive) | > 100 µM (inactive) | – | – | 22 µM (inactive) | > 100 µM (inactive) | > 100 µM (inactive) | > 100 µM (inactive) | > 100 µM (inactive) | > 100 µM (inactive) | > 100 µM (inactive) | > 100 µM (inactive) | > 100 µM (inactive) | > 100 µM (inactive) | > 100 µM (inactive) | > 100 µM (inactive) |
| Cc1ccc(NC(=O)c2cc3cc(/N=N/c4ccc(Br)cc4)ccc3oc2=O)cc1 | 83 µM (inactive) | > 100 µM (inactive) | > 100 µM (inactive) | > 100 µM (inactive) | > 100 µM (inactive) | > 100 µM (inactive) | > 100 µM (inactive) | – | > 100 µM (inactive) | – | > 100 µM (inactive) | > 100 µM (inactive) | 28.2 µM (inactive) | > 10 µM (inactive) | – | > 100 µM (inactive) | > 100 µM (inactive) |
| CC1(C)OC(=O)[C@@](C)([C@H](O)c2ccccc2)O1 | 45.1 µM (inactive) | 28.6 µM (inactive) | > 100 µM (inactive) | > 100 µM (inactive) | > 100 µM (inactive) | > 100 µM (inactive) | – | 35.8 µM (inactive) | > 100 µM (inactive) | > 100 µM (inactive) | 65 µM (inactive) | – | > 100 µM (inactive) | > 100 µM (inactive) | > 100 µM (inactive) | – | > 100 µM (inactive) |
| CCOP1(=O)C=C(C)C(=C(Cl)Cl)C(C)=C1 (stereo not given) | 5.64 µM (inactive) | – | 15.2 µM (inactive) | 35.1 µM (inactive) | 13.9 µM (inactive) | 17.5 µM (inactive) | 3.29 µM (inactive) | 20.6 µM (inactive) | 23.7 µM (inactive) | 10.2 µM (inactive) | 3.33 µM (inactive) | – | 9.57 µM (inactive) | 8.32 µM (inactive) | 18.9 µM (inactive) | 4.36 µM (inactive) | 21.3 µM (inactive) |
| Cc1ccc(OCC(=O)N2N=C(c3ccccc3)CC2(O)c2ccccc2)cc1 (stereo not given) | 7.89 µM (inactive) | 55.2 µM (inactive) | 18.5 µM (inactive) | > 100 µM (inactive) | 13 µM (inactive) | 15 µM (inactive) | 16.6 µM (inactive) | 33.3 µM (inactive) | 16.4 µM (inactive) | – | 55.3 µM (inactive) | 18.1 µM (inactive) | > 100 µM (inactive) | 34.4 µM (inactive) | – | 99.5 µM (inactive) | > 100 µM (inactive) |
| CCOC(=O)C1S(=O)(=O)OCCOS1(=O)=O | > 100 µM (inactive) | > 100 µM (inactive) | > 100 µM (inactive) | > 100 µM (inactive) | – | – | > 100 µM (inactive) | > 100 µM (inactive) | > 100 µM (inactive) | > 100 µM (inactive) | > 100 µM (inactive) | – | > 100 µM (inactive) | > 100 µM (inactive) | > 100 µM (inactive) | > 100 µM (inactive) | > 100 µM (inactive) |
